Columns and labels:
Assay type in all cases: binding
[1] = biological target: Hsp90α-NT (human Hsp90α immobilized via the N-terminal) (Homo sapiens, UniProt P07900); assay: Frontal chromatography on Hsp90α-NT column; conditions: for Bmax: Hsp90α-NT column, frontal chromatography, number of active binding sites, ±SE
[2] = biological target: Hsp90α-CT (human Hsp90α immobilized via the C-terminal) (Homo sapiens, UniProt P07900); assay: Frontal chromatography on Hsp90α-CT column; conditions: for Bmax: Hsp90α-CT column, frontal chromatography, number of active binding sites, ±SE
[3] = biological target: Hsp90α-NT (middle domain of Hsp90α) (Homo sapiens, UniProt P07900); assay: Competition studies of eNOS and CEP on Hsp90α-NT column; conditions: eNOS added to the mobile phase

retention factors of CEP with an increase in eNOS concentrations [3]	Compound	Kd [1] [µM]	Bmax [1] [nmol]	Kd [2] [µM]	Bmax [2] [nmol]
decreased	COc1ccc2cc1Oc1ccc(cc1)C[C@H]1c3c(cc4c(c3Oc3cc5c(cc3OC)CCN(C)[C@@H]5C2)OCO4)CCN1C [Cepharanthine, cepharanthine]	5.3 ± 1.3	19.8 ± 3.1	6.3 ± 1.7	56.9 ± 7.2
	COc1cc2c3c(c1OC)Oc1ccc(cc1)C[C@@H]1c4c(cc(OC)c(OC)c4Oc4ccc(cc4)C[C@H]3N(C)CC2)CCN1C [Cycleanine, cycleanine]	159 ± 23.2	37.3 ± 2.5	143 ± 36.6	578 ± 110
	berbamine		36.5 ± 3.3		89.7 ± 17.1
	isotetrandrine		54.7 ± 6.3		250 ± 29.7
